Holding throughout (assay): NCI-60 cell line screen, 48 h
The subject of assay [1] is ACHN.
For assay [2], the system named is COLO 205.
For assay [3], the system named is HCT-15.
In assay [4] the test system is HOP-62.
Assay [5] has as its system IGROV-1.
The test system of assay [6] is NCI-H226.
Assay [7] has as its system NCI-H522.
In assay [8] the test system is OVCAR-3.
For assay [9], the system named is OVCAR-8.
Assay [10] concerns RXF 393.
Assay [11] deals with SF-539.
Assay [12] relates to SK-MEL-28.
In assay [13] the test system is SK-MEL-5.
Assay [14] concerns SK-OV-3.
For assay [15], the system named is SNB-75.
Assay [16] deals with U-251.
The test system of assay [17] is UACC-257.

Each structure is given as a SMILES string.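 Following 48 hours of exposure in 96-well plates, responses at five concentrations were used to interpolate endpoints linearly. Abbreviation: GI50, concentration required for 50% inhibition of growth.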 Calls of active or inactive are those of the source. Rule as the data show it: active = GI50 up to about 1.1 µM and inactive = higher.

On to `O=C1O/C(=C(\Br)c2cccc3ccccc23)c2ccccc21`, for which the GI50 in assay [1] is 34.2 µM (inactive); in [2], 28.3 µM (inactive); in assay [3], 31.3 µM; in [4], > 100 µM (inactive); in assay [5], 27.9 µM (inactive); in assay [6] it was > 41.3 µM (inactive). The GI50 in [7] was 16 µM (inactive); in assay [8] it was 26.8 µM (inactive); in assay [9], > 43.7 µM (inactive); in assay [10] it was > 49 µM (inactive); in assay [11], 48.1 µM (inactive); in [12], > 35.1 µM (inactive). Moreover, the GI50 in assay [13] is 22.8 µM (inactive); in [14] it was > 39.8 µM (inactive); in assay [15] it was > 50.4 µM (inactive); in assay [16] it was > 100 µM (inactive); in assay [17], > 40.9 µM (inactive).
`COc1ccc(OC)c(NC(=O)CCC/C(CC(=O)c2ccc(O)c(OC)c2)=N\Nc2ccc([N+](=O)[O-])cc2)c1`: the GI50 in [1] is 80.4 µM (inactive); in assay [2], > 100 µM (inactive); in assay [3], over 100 µM; in assay [4], 69.5 µM (inactive); in [5], > 100 µM (inactive); in assay [6] it was > 100 µM (inactive). Also, the GI50 in assay [7] is 45.9 µM (inactive); in assay [8], > 100 µM (inactive); in [9], 28.2 µM (inactive); in [10] it was 19 µM (inactive); in assay [11], 57.7 µM (inactive); in assay [13] it was > 100 µM (inactive). The GI50 is 39 µM (inactive) in [14], 22.5 µM (inactive) in [15], 32.1 µM (inactive) in assay [16] and > 100 µM (inactive) in assay [17].
Regarding `COC(C)(C)[C@H](O)C(O)CC(C)[C@@H]1CCC23CC12CCC1[C@@]2(C)CCC(OC(C)=O)C(C)(C)C2CC(OC2OC(COC(C)=O)C(O)C(O)C2O)[C@]13C` (some centres undefined), the GI50 in assay [1] was 3.76 µM (inactive); in [2] it was 3.48 µM (inactive); in assay [3] it was 1.86 µM; in assay [4], 8.49 µM (inactive); in assay [5], 2.56 µM (inactive); in assay [6] it was 8.32 µM (inactive). The GI50 in [7] was 1.83 µM (inactive); in assay [8], 3.29 µM (inactive); in assay [9], 4.56 µM (inactive); in assay [10] it was 4.05 µM (inactive); in assay [11], 2.72 µM (inactive); in assay [12] it was 4.26 µM (inactive). Also, the GI50 was 5.48 µM (inactive) in assay [13]; 9.4 µM (inactive) in assay [14]; 3.8 µM (inactive) in [15]; 2.67 µM (inactive) in [16]; 3.76 µM (inactive) in assay [17].
Consider `CC(C)(C)C1CC[C@H]2c3c([nH]c4ccc(Br)cc34)[C@H]3C(=O)N(c4ccccc4)C(=O)[C@H]3[C@H]2C1` (some centres undefined), for which the GI50 is > 100 µM (inactive) in assay [1]; 7.74 µM (inactive) in [2]; 54 µM (inactive) in assay [4]; > 100 µM (inactive) in [5]; 35.2 µM (inactive) in [6]; 19.4 µM (inactive) in assay [7]. Also, the GI50 is 75.2 µM (inactive) in assay [8]; 3.49 µM (inactive) in assay [9]; 32.7 µM (inactive) in assay [10]; 41.1 µM (inactive) in [12]; 28.1 µM (inactive) in assay [13]; 21.7 µM (inactive) in assay [14]. The GI50 was 18.5 µM (inactive) in assay [15], 10.4 µM (inactive) in [16] and > 100 µM (inactive) in assay [17].
On to `O=C1CCCC/C(=C/c2ccccc2)N1`, for which the GI50 in [1] is > 100 µM (inactive); in assay [2] it was > 100 µM (inactive); in [3], over 100 µM; in assay [4], > 100 µM (inactive); in assay [5], > 100 µM (inactive); in assay [6], > 100 µM (inactive). The GI50 in assay [7], in assay [8], in assay [9], in assay [10], in assay [11] and in assay [12] was > 100 µM (inactive) each time. For the same molecule, the GI50 in assay [14] was > 100 µM (inactive); in assay [15] it was 56.6 µM (inactive); in [16], > 100 µM (inactive); in [17] it was > 100 µM (inactive).
With `CC(=O)O[C@H]1CC[C@@]2(C)C(=CC[C@@H]3C2CC[C@]2(C)Nc4[nH]ncc4CC32)C1` (some centres undefined), the GI50 in assay [1] was > 100 µM (inactive); in assay [3], 17.5 µM; in assay [4] it was > 100 µM (inactive); in [5], 75.5 µM (inactive); in [6], > 100 µM (inactive); in [8] it was 19.2 µM (inactive). Moreover, the GI50 in [9] was 29.9 µM (inactive); in [10], 30.4 µM (inactive); in assay [11] it was 20 µM (inactive); in [12], 32.2 µM (inactive); in assay [13], 19.1 µM (inactive); in assay [14] it was > 100 µM (inactive). Also, the GI50 in [15] was 85.9 µM (inactive); in [16], 15 µM (inactive); in assay [17], 16.6 µM (inactive).
For the molecule `CC(=O)NC(CCCCNC(=O)NCCCl)C(=O)NCc1ccccc1` (centres undefined), the GI50 is > 100 µM (inactive) in assay [1]; > 100 µM (inactive) in assay [2]; over 100 µM in assay [3]; > 100 µM (inactive) in [4]; > 100 µM (inactive) in [6]; > 100 µM (inactive) in assay [7]. Further, the GI50 in [8], in assay [9], in assay [10], in [11], in [12] and in [13] was > 100 µM (inactive) throughout. Besides, the GI50 in [15], in assay [16] and in [17] was > 100 µM (inactive) throughout.
As to `CCO/C=C/C(C)C1(C(=O)OCC)CCCCC1=O` (centres undefined), the GI50 in assay [1] is > 100 µM (inactive); in assay [2], > 100 µM (inactive); in assay [3], 63.1 µM; in assay [4], > 100 µM (inactive); in assay [5], > 100 µM (inactive); in assay [6] it was > 100 µM (inactive). The GI50 in assay [7], in [8], in assay [9], in [10], in assay [11] and in assay [12] was > 100 µM (inactive) throughout. In addition, the GI50 in assay [13], in assay [14], in assay [15], in [16] and in assay [17] was > 100 µM (inactive) in each case.
Consider `O=C(C(=O)N1CC2C=CC1CC2)c1c[nH]c2ccccc12` (centres undefined), for which the GI50 is > 100 µM (inactive) in assay [1]; > 100 µM (inactive) in assay [2]; over 100 µM in [3]; > 100 µM (inactive) in assay [4]; > 100 µM (inactive) in assay [5]; > 100 µM (inactive) in assay [6]. The GI50 in assay [7], in assay [9], in assay [10], in [11], in assay [13] and in [14] was > 100 µM (inactive) in each case. The values for the GI50 in assay [15], in assay [16] and in assay [17] were 82.4 µM (inactive), > 100 µM (inactive) and > 100 µM (inactive), respectively.
As to `CCOP(=O)(C/C(O)=C1\C(=O)C(CCCNC(=O)OC(C)(C)C)N(Cc2ccc(OC)c(OC)c2)C1=O)OCC` (centres undefined), the GI50 is > 100 µM (inactive) in assay [1]; > 100 µM (inactive) in assay [2]; > 100 µM (inactive) in [4]; > 100 µM (inactive) in assay [5]; 77.4 µM (inactive) in [6]; 2.59 µM (inactive) in [7]. Also, the GI50 in assay [8], in assay [9], in [10], in [11], in [12] and in assay [13] was > 100 µM (inactive) each time. In addition, the GI50 in [15], in assay [16] and in assay [17] was > 100 µM (inactive) each time.
As for `COc1ccc(-c2cc(=O)c3ccccc3[nH]2)c(OC)c1`, the GI50 is > 100 µM (inactive) in assay [1]; > 100 µM (inactive) in [2]; over 100 µM in [3]; > 100 µM (inactive) in [4]; > 100 µM (inactive) in [5]; > 100 µM (inactive) in assay [7]. Also, the GI50 in [8], in assay [9], in assay [10], in assay [11], in assay [12] and in [14] was > 100 µM (inactive) throughout. Besides, the GI50 in assay [15], in [16] and in assay [17] was > 100 µM (inactive) throughout.
For the molecule `Cc1ccc2nc(NC(=O)C(=O)C(C(=O)c3ccc4ccccc4c3)C3OC(=O)c4ccccc43)sc2c1` (centres undefined), the GI50 in assay [1] is 16.5 µM (inactive); in [2], 15.1 µM (inactive); in assay [3], over 10 µM; in [4] it was 11 µM (inactive); in assay [5] it was 14.9 µM (inactive); in assay [6], 2.1 µM (inactive). Further, the GI50 is 12 µM (inactive) in [7]; 22.9 µM (inactive) in assay [8]; 7.74 µM (inactive) in assay [9]; 1.87 µM (inactive) in [10]; 2.63 µM (inactive) in assay [11]; 5.21 µM (inactive) in assay [12]. For the same molecule, the GI50 was 10.5 µM (inactive) in [13], 29.9 µM (inactive) in assay [14], 2.81 µM (inactive) in assay [16] and 13.1 µM (inactive) in assay [17].

The record behind these values is ChEMBL document CHEMBL1201862, “PubChem BioAssay data set” (2004).
